# ChEMBL document CHEMBL3045723, “Synthesis of novel 3-(5-sulfanyl-1,3,4-oxadiazol-2-yl)-2H-chromen-2-one condensed s-triazinyl piperazines and piperidines as antimicrobial agents” (2012)
# Legend:
# Candida albicans [1] = assay: Antifungal activity against Candida albicans MTCC 183 after 48 hr; format: functional; conditions: MTCC 183, 48 h
# Aspergillus niger [2] = assay: Antifungal activity against Aspergillus niger MTCC 282 after 48 hr; format: functional; conditions: MTCC 282, 48 h
# Candida albicans [3] = assay: Antifungal activity against Candida albicans MTCC 183 at 100 ug/disk after 24 hr by agar disk diffusion test; format: functional; conditions: MTCC 183, 24 h, read-out: IZ
# Aspergillus niger [4] = assay: Antifungal activity against Aspergillus niger MTCC 282 at 100 ug/disk after 24 hr by agar disk diffusion test; format: functional; conditions: MTCC 282, 24 h, read-out: IZ
# Shigella flexneri [5] = assay: Antibacterial activity against Shigella flexneri after 24 hr; format: functional
# Proteus vulgaris [6] = assay: Antibacterial activity against Proteus vulgaris MTCC 1771 after 24 hr; format: functional; conditions: MTCC 1771, 24 h
# Salmonella typhi [7] = assay: Antibacterial activity against Salmonella enterica subsp. enterica serovar Typhi MTCC 733 after 24 hr; format: functional; conditions: MTCC 733, 24 h
# Bacillus cereus [8] = assay: Antibacterial activity against Bacillus cereus MTCC 619 at 100 ug/disk after 24 hr by agar disk diffusion test; format: functional; conditions: MTCC 619, 24 h, read-out: IZ
# Staphylococcus aureus [9] = assay: Antibacterial activity against Staphylococcus aureus MTCC 96 at 100 ug/disc after 24 hr by agar disk diffusion test; conditions: MTCC 96, 24 h, read-out: IZ
# Klebsiella pneumoniae [10] = assay: Antibacterial activity against Klebsiella pneumoniae MTCC 109 after 24 hr; format: functional; conditions: MTCC 109, 24 h
# Pseudomonas aeruginosa [11] = assay: Antibacterial activity against Pseudomonas aeruginosa MTCC 741; format: functional
# Bacillus cereus [12] = assay: Antibacterial activity against Bacillus cereus MTCC 619 after 24 hr; format: functional; conditions: MTCC 619, 24 h
# Staphylococcus aureus [13] = assay: Antibacterial activity against Staphylococcus aureus MTCC 96 after 24 hr; format: functional; conditions: MTCC 96, 24 h
# Shigella flexneri [14] = assay: Antibacterial activity against Shigella flexneri at 100 ug/disc after 24 hr by agar disk diffusion test; format: functional; conditions: read-out: IZ
# Proteus vulgaris [15] = assay: Antibacterial activity against Proteus vulgaris MTCC 1771 at 100 ug/disk after 24 hr by agar disk diffusion test; format: functional; conditions: MTCC 1771, 24 h, read-out: IZ
# Salmonella typhi [16] = assay: Antibacterial activity against Salmonella enterica subsp. enterica serovar Typhi MTCC 733 at 100 ug/disk after 24 hr by agar disk diffusion test; format: functional; conditions: MTCC 733, 24 h, read-out: IZ
# Pseudomonas aeruginosa [17] = assay: microbe, parasite or virus in culture; conditions: MTCC 741, 24 h, read-out: IZ
# Description: Antibacterial activity against Pseudomonas aeruginosa MTCC 741 at 100 ug/disk after 24 hr by agar disk diffusion test
# Escherichia coli [18] = assay: microbe, parasite or virus in culture; conditions: MTCC 739, 24 h, read-out: IZ
# Description: Antibacterial activity against Escherichia coli MTCC 739 at 100 ug/disk after 24 hr by agar disk diffusion test
# Klebsiella pneumoniae [19] = assay: microbe, parasite or virus in culture; conditions: MTCC 109, 24 h, read-out: IZ
# Description: Antibacterial activity against Klebsiella pneumoniae MTCC 109 at 100 ug/disk after 24 hr by agar disk diffusion test
# Candida albicans [20] = assay: Antifungal activity against Candida albicans MTCC 183 after 24 hr by agar disk diffusion test; format: functional
# Aspergillus niger [21] = assay: Antifungal activity against Aspergillus niger MTCC 282 after 24 hr by agar disk diffusion test; format: functional
# Shigella flexneri [22] = assay: Antibacterial activity against Shigella flexneri after 24 hr by agar disk diffusion test; format: functional
# Proteus vulgaris [23] = assay: Antibacterial activity against Proteus vulgaris MTCC 1771 after 24 hr by agar disk diffusion test; format: functional
# Salmonella typhi [24] = assay: Antibacterial activity against Salmonella enterica subsp. enterica serovar Typhi MTCC 733 after 24 hr by agar disk diffusion test; format: functional
# Klebsiella pneumoniae [25] = assay: Antibacterial activity against Klebsiella pneumoniae MTCC 109 after 24 hr by agar disk diffusion test; format: functional
# Pseudomonas aeruginosa [26] = assay: Antibacterial activity against Pseudomonas aeruginosa MTCC 741 after 24 hr by agar disk diffusion test; format: functional
# Escherichia coli [27] = assay: Antibacterial activity against Escherichia coli MTCC 739 after 24 hr by agar disk diffusion test; format: functional
# Bacillus cereus [28] = assay: Antibacterial activity against Bacillus cereus MTCC 619 after 24 hr by agar disk diffusion test; format: functional
# Staphylococcus aureus [29] = assay: Antibacterial activity against Staphylococcus aureus MTCC 96 after 24 hr by agar disk diffusion test; format: functional
# Escherichia coli [30] = assay: Antibacterial activity against Escherichia coli MTCC 739 after 24 hr; format: functional; conditions: MTCC 739, 24 h
smiles,measurement,setting,value
CC(=O)N1CCN(c2ccc(OCC3COC(Cn4ccnc4)(c4ccc(Cl)cc4Cl)O3)cc2)CC1 (centres undefined) [KETOCONAZOLE],MIC,Candida albicans [1],1.56 µg/mL
same,MIC,Aspergillus niger [2],1.56 µg/mL
same,zone of inhibition at 100 µg/disc,Candida albicans [3],33 mm
same,zone of inhibition at 100 µg/disc,Aspergillus niger [4],30 mm
O=C(O)c1cn(C2CC2)c2cc(N3CCNCC3)c(F)cc2c1=O [CIPROFLOXACIN],MIC,Shigella flexneri [5],1.56 µg/mL
same,MIC,Proteus vulgaris [6],0.39 µg/mL
same,MIC,Salmonella typhi [7],0.39 µg/mL
same,zone of inhibition at 100 µg/disc,Bacillus cereus [8],31 mm
same,zone of inhibition at 100 µg/disc,Staphylococcus aureus [9],30 mm
same,MIC,Klebsiella pneumoniae [10],0.78 µg/mL
same,MIC,Pseudomonas aeruginosa [11],0.78 µg/mL
same,MIC,Bacillus cereus [12],0.39 µg/mL
same,MIC,Staphylococcus aureus [13],1.56 µg/mL
same,zone of inhibition at 100 µg/disc,Shigella flexneri [14],32 mm
same,zone of inhibition at 100 µg/disc,Proteus vulgaris [15],31 mm
same,zone of inhibition at 100 µg/disc,Salmonella typhi [16],30 mm
same,zone of inhibition at 100 µg/disc,Pseudomonas aeruginosa [17],33 mm
same,zone of inhibition at 100 µg/disc,Escherichia coli [18],32 mm
same,zone of inhibition at 100 µg/disc,Klebsiella pneumoniae [19],33 mm
O=c1oc2ccccc2cc1-c1nnc(Sc2nc(Oc3cccc4cccnc34)nc(N3CCN(c4cccc(Cl)c4Cl)CC3)n2)o1,MIC,Candida albicans [1],50 µg/mL
same,MIC,Aspergillus niger [2],25 µg/mL
same,inhibition zone (IZ),Candida albicans [20],21 mm
same,inhibition zone (IZ),Aspergillus niger [21],23 mm
same,MIC,Shigella flexneri [5],100 µg/mL
same,MIC,Proteus vulgaris [6],100 µg/mL
same,MIC,Salmonella typhi [7],100 µg/mL
same,inhibition zone (IZ),Shigella flexneri [22],21 mm
same,inhibition zone (IZ),Proteus vulgaris [23],17 mm
same,inhibition zone (IZ),Salmonella typhi [24],19 mm
same,inhibition zone (IZ),Klebsiella pneumoniae [25],21 mm
same,inhibition zone (IZ),Pseudomonas aeruginosa [26],20 mm
same,inhibition zone (IZ),Escherichia coli [27],24 mm
same,inhibition zone (IZ),Bacillus cereus [28],22 mm
same,inhibition zone (IZ),Staphylococcus aureus [29],21 mm
same,MIC,Klebsiella pneumoniae [10],25 µg/mL
same,MIC,Pseudomonas aeruginosa [11],50 µg/mL
same,MIC,Escherichia coli [30],25 µg/mL
same,MIC,Bacillus cereus [12],25 µg/mL
same,MIC,Staphylococcus aureus [13],50 µg/mL
